The values that follow come from patent publication US20250163119A1, “COMPOUNDS FOR THE TREATMENT OF DIABETES OR OBESITY” (Eli Lilly and Company, priority 2023, published 2025).

The target in one assay is T1, human CRHR2 (Homo sapiens, UniProt Q13324).
T1 construct: expressed in transfected cells
T1 sequence (Q13324 1-438 isoform Q13324-2): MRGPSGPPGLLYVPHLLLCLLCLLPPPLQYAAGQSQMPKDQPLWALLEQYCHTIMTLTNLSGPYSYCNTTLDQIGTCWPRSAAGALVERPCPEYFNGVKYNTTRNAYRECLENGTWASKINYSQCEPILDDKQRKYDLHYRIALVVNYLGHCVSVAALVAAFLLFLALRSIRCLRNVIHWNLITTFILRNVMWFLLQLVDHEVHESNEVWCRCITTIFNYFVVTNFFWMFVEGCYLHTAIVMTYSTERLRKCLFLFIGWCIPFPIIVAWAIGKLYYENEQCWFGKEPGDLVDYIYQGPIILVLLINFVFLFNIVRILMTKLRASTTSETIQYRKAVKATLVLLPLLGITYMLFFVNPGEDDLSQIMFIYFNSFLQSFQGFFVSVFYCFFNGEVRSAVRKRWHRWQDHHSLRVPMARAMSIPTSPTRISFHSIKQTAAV
The assay can be described thus: Human CRHR2 cAMP assay (HTRF) in HEK293 cells stably expressing human CRHR2. In kind it is cell-based. As to conditions: HEK293 cells overexpressing human CRHR2; relative EC50, maximum 10 nM human UCN2; mean ± SE; read-out: hCRHR2 cAMP EC50 (pM, ± SE). Here is the method: (§1) The corticotropin-releasing hormone (CRH) receptor 1 and 2 (CRHR1 and CRHR2) are GPCRs that were functionally coupled to Gs proteins. Stimulation of these receptors results in an increased production of intracellular cAMP, which can be detected using standard in vitro technologies. In vitro activity of peptides was measured by the amount of cAMP formed in human CRHR1 and CRHR2 overexpressed cells.
(§2) Human CRHR1 and CRHR2 receptors were stably expressed in human embryonic kidney cells (HEK293) under control of a pcDNA expression vector. The HEK293 cell line was cultured in DMEM 1× (Gibco, 93-0152DK) supplemented with 10% FBS, 1 mM sodium pyruvate, 1×MEM NEAA, 1× GlutaMAX and 10 mM HEPES. The plasmids of human CRHR1-pQCXIP (T7364) and human CRHR2b-R2683puro (T16761) DNA were transfected into HEK293 cells using Lipo fectAMINE 3000 Transfection reagent (Invitrogen, L3000001). After 20 days under selection, the mRNA levels from different clones were measured to confirm the expression of human CRHR1 and CRHR2 genes. To determine the function of over-expressed CRHR cells, the intracellular cAMP levels in response to human UCN1 and UCN2 were measured and compared to the expression of CRHR1 and CRHR2 mRNA in each clone.
(§3) Human CRHR1 cells were cultured in DMEM 1× (Gibco, 93-0152DK) supplemented with 10% FBS, 1 mM sodium pyruvate, 1×MEM NEAA, 1×GlutaMAX, 10 mM HEPES, and 800 μg/ml G418. Human CRHR2 cells were cultured at the same media (DMEM 1×, 10% FBS, 1 mM sodium pyruvate, 1×MEM NEAA, 1×GlutaMAX, 10 mM HEPES) in the presence of 0.5 ug/mL puromycin. Cultured cells were grown to 90% confluency and harvested. The cells were frozen at 10×10e6/ml in a mixture of […] fetal bovine serum plus 7% DMSO and stored in liquid nitrogen until use.
(§4) On the day of the assay, the frozen cells were thawed and diluted in assay buffer (Phenol Red free MEM (Corning, 17-305-CV, lot #32121010), 0.1% Casein (Sigma C4765, lot #SLCG2120), 5 mM HEPES pH 7.4 containing 0.25 mM IBMX). 10 ul of human CRHR1 cells (25,000 cells) or 10 μL of human CRHR2 cells (5,000 cells) were dispensed into each well of white poly-D-lysine coated 384-well plates (Corning cat #354661). Test compounds diluted in DMSO were added (200 nL/well) in a 1:3 dilution series using ECHO acoustic liquid handler (Beckman). The mixture of cells and test compounds were incubated at 37° C. for 1 hour for the hCRHR1 plate, while the CRHR2 plates were incubated at room temperature for 30 min.
(§5) The amount of intracellular cAMP was quantitated using HTRF technology (Homogeneous Time Resolved Fluorescence; Cisbio) as per vendor instructions. Briefly, 10 uL CAMP-d2 conjugate and 10 uL anti-CAMP-cryptate conjugate in lysis buffer were incubated with the treated cells at room temperature for 60 min. The HTRF signal was immediately detected using an Envision plate reader (Perkin-Elmer) to calculate the ratio of fluorescence at 665 to 620 nm.
(§6) Raw fluorescence data for concentration curves of the peptides in Table 2 and Table 3 were converted to cAMP amount (pmol/well) using a cAMP standard curve generated for each experiment.
For orientation: Changes in cAMP serve as a functional read-out for many G protein-coupled receptors.

The target of another assay is T2, human CRHR1 (Homo sapiens, UniProt P34998).
T2 construct: expressed in transfected cells
T2 sequence (P34998 24-415): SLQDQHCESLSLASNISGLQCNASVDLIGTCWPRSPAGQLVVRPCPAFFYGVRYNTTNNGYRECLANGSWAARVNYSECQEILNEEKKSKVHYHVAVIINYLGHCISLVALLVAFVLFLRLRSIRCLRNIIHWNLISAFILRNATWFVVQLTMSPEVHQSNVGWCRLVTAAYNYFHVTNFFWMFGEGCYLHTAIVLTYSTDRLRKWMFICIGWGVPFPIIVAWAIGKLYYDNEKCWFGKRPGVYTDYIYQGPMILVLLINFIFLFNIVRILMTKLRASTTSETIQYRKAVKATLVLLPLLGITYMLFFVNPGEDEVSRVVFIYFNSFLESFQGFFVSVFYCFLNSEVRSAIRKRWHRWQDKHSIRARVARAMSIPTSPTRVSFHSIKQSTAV
The assay can be described thus: Human CRHR1 cAMP assay (HTRF) in HEK293 cells stably expressing human CRHR1. It counts as cell-based. As to conditions: HEK293 cells overexpressing human CRHR1; relative EC50, maximum 66 nM human UCN1; mean ± SE; read-out: hCRHR1 cAMP EC50 (pM, ± SE). Here is the method:
as §1, §2, §3, §4, §5, §6

*1 amine or outer side, *2 acyl side, *3 side chain or, on linkers, in order; H or OH if unused. Where a SMILES comes first, the peptide text is derived from it. Side-chain parts run from the residue outwards. [ ]: non-standard residue; d: D form. The star is where a group is joined. C20 diacid = O=C(O)CCCCCCCCCCCCCCCCCCC(=O)*; γGlu = O=C(O)[C@H](CCC(=O)[*:2])N[*:1]; εLys = N[C@@H](CCCCN[*:1])C(=O)[*:2]; αMeL = CC(C)C[C@](C)(N)C(=O)O; Dap = NC[C@H](N)C(=O)O; AEEA = NCCOCCOCC(=O)O; Aib = CC(C)(N)C(=O)O

What is called EC50 is the midpoint of the concentration-response curve. As for `CC[C@H](C)[C@H](NC(=O)[C@H](CCC(=O)O)NC(=O)[C@H](C)NC(=O)[C@H](C)NC(=O)[C@H](CCC(=O)O)NC(=O)[C@H](CCCCNC(=O)CC[C@H](NC(=O)CNC(=O)[C@H](CCCCN)NC(=O)[C@H](CCC(=O)O)NC(=O)[C@H](CCCCN)NC(=O)[C@H](CCC(=O)O)NC(=O)[C@H](CCCCN)NC(=O)[C@H](CCC(=O)O)NC(=O)CCCCCCCCCCCCCCCCCCC(=O)O)C(=O)O)NC(=O)[C@H](C)NC(=O)[C@H](CCC(N)=O)NC(=O)[C@H](CCC(N)=O)NC(=O)[C@H](CCCNC(=N)N)NC(=O)[C@H](C)NC(=O)[C@H](CCCCN)NC(=O)[C@H](CCC(=O)O)NC(=O)[C@H](C)NC(=O)[C@H](CCCNC(=N)N)NC(=O)[C@H](CCC(=O)O)NC(=O)[C@H](CCC(N)=O)NC(=O)[C@H](CCC(=O)O)NC(=O)[C@H](CC(C)C)NC(=O)[C@@H](NC(=O)[C@H](CCCCN)NC(=O)[C@H](CCC(N)=O)NC(=O)[C@H](CC(C)C)NC(=O)[C@](C)(CC(C)C)NC(=O)C(C)(C)NC(=O)[C@@H](NC(=O)[C@@H]1CCCN1C(=O)[C@@H](NC(=O)[C@H](CC(=O)O)NC(=O)[C@](C)(CC(C)C)NC(=O)[C@H](CO)NC(=O)[C@@H](NC(=O)[C@@H](NC(=O)[C@@H](NC(=O)[C@H](CO)NC(=O)[C@@H]1CCCN1C(=O)[C@H](CO)NC(=O)CNC(C)=O)[C@@H](C)CC)C(C)C)[C@@H](C)O)C(C)C)[C@@H](C)O)[C@@H](C)CC)C(=O)N[C@@H](CC(C)C)C(=O)N[C@@H](C)C(=O)N[C@@H](CCC(N)=O)C(=O)N[C@H](C(N)=O)C(C)C` [SEQ ID NO: 6, Ac-GSPSIVTS αMeL DVPT Aib αMeL LQKILEQERAEKARQQAK(γE-GKEKEKE-CO-(CH2)18-CO2H)EAAEILAQV-NH2], the values for the concentration giving a half-maximal response (EC50) at human CRHR2 and at human CRHR1 were 10.1 ± 2.5 pM and above 1e+07 pM, respectively.
Consider `CC[C@H](C)[C@H](NC(C)=O)C(=O)N[C@H](C(=O)N[C@H](C(=O)N[C@@H](CO)C(=O)N[C@@](C)(CC(C)C)C(=O)N[C@@H](CC(=O)O)C(=O)N[C@@H](C(=O)N1CCC[C@H]1C(=O)N[C@H](C(=O)NCC(=O)N[C@@](C)(CC(C)C)C(=O)N[C@@H](CC(C)C)C(=O)N[C@@H](CCC(N)=O)C(=O)N[C@H](C(=O)N[C@@H](CCCCN)C(=O)N[C@@H](CC(C)C)C(=O)N[C@@H](CCC(=O)O)C(=O)N[C@@H](CCC(N)=O)C(=O)N[C@@H](CCC(=O)O)C(=O)N[C@@H](CCCNC(=N)N)C(=O)N[C@@H](C)C(=O)N[C@@H](CCC(=O)O)C(=O)N[C@@H](CCCCN)C(=O)N[C@@H](C)C(=O)N[C@@H](CCCNC(=N)N)C(=O)N[C@@H](CCC(N)=O)C(=O)N[C@@H](CCC(N)=O)C(=O)N[C@@H](C)C(=O)N[C@@H](CCCCNC(=O)CC[C@H](NC(=O)COCCOCCNC(=O)[C@@H](N)CCCCNC(=O)CCCCCCCCCCCCCCCCCCC(=O)O)C(=O)O)C(=O)N[C@@H](CCC(=O)O)C(=O)N[C@@H](CC(N)=O)C(=O)N[C@H](C(=O)N[C@@H](CCC(=O)O)C(=O)N[C@H](C(=O)N[C@@H](CC(C)C)C(=O)N[C@@H](C)C(=O)N[C@@H](CCC(N)=O)C(=O)N[C@H](C(N)=O)C(C)C)[C@@H](C)CC)[C@@H](C)O)[C@@H](C)CC)[C@@H](C)O)C(C)C)[C@@H](C)O)C(C)C` [SEQ ID NO: 36, Ac-IVTS αMeL D (D-Val) PTG αMeL LQIKLEQERAEKARQQAK(γE-(2-[2-(2-Amino-ethoxy)-ethoxy]-acetyl)-ϵK-CO-(CH2)18-CO2H)ENTEILAQV-NH2] (Ac-IVTS[αMeL]D[dV]PTG[αMeL]LQIKLEQERAEKARQQAK([γGlu-AEEA-εLys-C20 diacid])ENTEILAQV-NH2), for which the EC50 on human CRHR2 came out at 4.4 ± 0.4 pM.
On to `CC[C@H](C)[C@H](NC(C)=O)C(=O)N[C@H](C(=O)N[C@H](C(=O)N[C@@H](CO)C(=O)N[C@@](C)(CC(C)C)C(=O)N[C@@H](CC(=O)O)C(=O)N[C@@H](C(=O)N1CCC[C@H]1C(=O)N[C@H](C(=O)NCC(=O)N[C@@](C)(CC(C)C)C(=O)N[C@@H](CC(C)C)C(=O)N[C@@H](CCC(N)=O)C(=O)N[C@H](C(=O)N[C@@H](CCCCN)C(=O)N[C@@H](CC(C)C)C(=O)N[C@@H](CCC(=O)O)C(=O)N[C@@H](CCC(N)=O)C(=O)N[C@@H](CCC(=O)O)C(=O)N[C@@H](CCCNC(=N)N)C(=O)N[C@@H](C)C(=O)N[C@@H](CCC(=O)O)C(=O)N[C@@H](CCCCN)C(=O)N[C@@H](C)C(=O)N[C@@H](CCCNC(=N)N)C(=O)N[C@@H](CCC(N)=O)C(=O)N[C@@H](CCC(N)=O)C(=O)N[C@@H](C)C(=O)N[C@@H](CCCCNC(=O)CC[C@H](NC(=O)[C@@H](N)CCCCNC(=O)COCCOCCNC(=O)CCCCCCCCCCCCCCCCCCC(=O)O)C(=O)O)C(=O)N[C@@H](CCC(=O)O)C(=O)N[C@@H](CC(N)=O)C(=O)N[C@H](C(=O)N[C@@H](CCC(=O)O)C(=O)N[C@H](C(=O)N[C@@H](CC(C)C)C(=O)N[C@@H](C)C(=O)N[C@@H](CCC(N)=O)C(=O)N[C@H](C(N)=O)C(C)C)[C@@H](C)CC)[C@@H](C)O)[C@@H](C)CC)[C@@H](C)O)C(C)C)[C@@H](C)O)C(C)C` [SEQ ID NO: 37, Ac-IVTS αMeL D (D-Val) PTG αMeL LQIKLEQERAEKARQQAK(γE-ϵK-(2-[2-(2-Amino-ethoxy)-ethoxy]-acetyl)-CO-(CH2)18-CO2H)ENTEILAQV-NH2] (Ac-IVTS[αMeL]D[dV]PTG[αMeL]LQIKLEQERAEKARQQAK([γGlu-εLys-AEEA-C20 diacid])ENTEILAQV-NH2), for which the half-maximal effective concentration (EC50) on human CRHR2 turned out to be 5 ± 0.2 pM.
The same measure, in the same setting: with “{C20 diacid}-[Dap][AEEA][γGlu]GSPSIVTS[αMeL]DVPT[Aib][αMeL]LEKILEQERAEKARQQATEAAEILAQV-NH2 [SEQ ID NO: 52]” the figure was 6.6 ± 0.5 pM.
